The structures appear in SMILES notation. The source made the active and inactive calls.

Data set [1] deals with T1, Endoribonuclease toxin MazF (Escherichia coli K-12, UniProt P0AE70).
T1 sequence (P0AE70 whole entry): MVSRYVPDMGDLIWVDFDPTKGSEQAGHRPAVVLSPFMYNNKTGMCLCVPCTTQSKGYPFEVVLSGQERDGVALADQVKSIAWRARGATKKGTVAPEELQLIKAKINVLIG
The experiment in a line: activation of MazEF endoribonuclease cleavage – biochemical, fluorescence, single-stranded RNA substrate, uHTS hits, dose response (AID 588481). The data set is classed as functional.

Data set [2] deals with T1, Endoribonuclease toxin MazF. The experiment in a line: substrate-only fluorescence increase artefacts – biochemical, single-stranded RNase substrate, counter-screen for MazEF activator project, dose response (AID 588502). The data set is classed as functional. (In general: A counterscreen serves to expose hits that act by an unwanted route or on another target.)
The target in data set [3] is T2, Sentrin-specific protease 6 (Homo sapiens, UniProt Q9GZR1).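 Note: Luminescence-based dose-response confirmatory assay of SENP6 inhibition, following up an ultra-high-throughput screen.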
T2 sequence (Q9GZR1 whole entry): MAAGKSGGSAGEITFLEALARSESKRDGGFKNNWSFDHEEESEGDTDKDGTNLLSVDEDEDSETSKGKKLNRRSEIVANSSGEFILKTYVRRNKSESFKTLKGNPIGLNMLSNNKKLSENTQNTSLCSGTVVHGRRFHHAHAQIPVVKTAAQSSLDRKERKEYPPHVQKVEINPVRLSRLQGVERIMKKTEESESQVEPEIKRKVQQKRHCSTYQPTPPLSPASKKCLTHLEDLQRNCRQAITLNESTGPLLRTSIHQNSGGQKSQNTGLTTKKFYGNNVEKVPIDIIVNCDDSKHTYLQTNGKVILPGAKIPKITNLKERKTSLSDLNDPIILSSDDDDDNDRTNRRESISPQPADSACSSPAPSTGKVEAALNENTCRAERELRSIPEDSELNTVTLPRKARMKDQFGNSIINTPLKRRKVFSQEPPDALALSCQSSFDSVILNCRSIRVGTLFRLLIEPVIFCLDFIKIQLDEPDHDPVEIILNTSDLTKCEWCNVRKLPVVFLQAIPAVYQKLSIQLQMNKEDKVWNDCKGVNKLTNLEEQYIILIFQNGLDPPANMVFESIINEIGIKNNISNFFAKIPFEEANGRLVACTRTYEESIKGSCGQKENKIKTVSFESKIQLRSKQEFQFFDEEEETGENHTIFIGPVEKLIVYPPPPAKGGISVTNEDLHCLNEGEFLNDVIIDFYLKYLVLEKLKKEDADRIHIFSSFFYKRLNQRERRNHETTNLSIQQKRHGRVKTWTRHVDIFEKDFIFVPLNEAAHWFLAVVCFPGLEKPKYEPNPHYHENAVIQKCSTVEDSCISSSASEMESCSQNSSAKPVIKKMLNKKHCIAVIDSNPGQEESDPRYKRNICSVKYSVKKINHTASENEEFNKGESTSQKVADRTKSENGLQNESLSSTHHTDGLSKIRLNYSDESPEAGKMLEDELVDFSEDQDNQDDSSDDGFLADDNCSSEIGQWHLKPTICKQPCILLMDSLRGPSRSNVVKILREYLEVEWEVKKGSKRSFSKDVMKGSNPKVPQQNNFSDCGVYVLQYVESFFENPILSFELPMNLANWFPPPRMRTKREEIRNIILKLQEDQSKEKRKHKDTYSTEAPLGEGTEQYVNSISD
Format: functional.

The next data set has as its target T3, Caspase-3 (Homo sapiens, UniProt P42574).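 Note: Dose-response selectivity test against caspase-3 for candidate inhibitors of sentrin-specific proteases (SENPs).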
T3 sequence (P42574 whole entry): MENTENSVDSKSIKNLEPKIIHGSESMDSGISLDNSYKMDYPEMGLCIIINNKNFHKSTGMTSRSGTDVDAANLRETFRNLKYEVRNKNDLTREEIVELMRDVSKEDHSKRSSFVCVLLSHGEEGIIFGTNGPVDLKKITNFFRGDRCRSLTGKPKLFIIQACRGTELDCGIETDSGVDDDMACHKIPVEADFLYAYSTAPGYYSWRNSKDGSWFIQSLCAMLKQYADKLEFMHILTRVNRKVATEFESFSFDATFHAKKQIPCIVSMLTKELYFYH
The data set is classed as functional.

Data set [4] in a line: microbe, parasite or virus in culture. Format: functional. The following applies: Mycobacterium tuberculosis.
Data set [5] deals with T4, Sentrin-specific protease 7 (Homo sapiens, UniProt Q9BQF6).
T4 sequence (Q9BQF6 whole entry): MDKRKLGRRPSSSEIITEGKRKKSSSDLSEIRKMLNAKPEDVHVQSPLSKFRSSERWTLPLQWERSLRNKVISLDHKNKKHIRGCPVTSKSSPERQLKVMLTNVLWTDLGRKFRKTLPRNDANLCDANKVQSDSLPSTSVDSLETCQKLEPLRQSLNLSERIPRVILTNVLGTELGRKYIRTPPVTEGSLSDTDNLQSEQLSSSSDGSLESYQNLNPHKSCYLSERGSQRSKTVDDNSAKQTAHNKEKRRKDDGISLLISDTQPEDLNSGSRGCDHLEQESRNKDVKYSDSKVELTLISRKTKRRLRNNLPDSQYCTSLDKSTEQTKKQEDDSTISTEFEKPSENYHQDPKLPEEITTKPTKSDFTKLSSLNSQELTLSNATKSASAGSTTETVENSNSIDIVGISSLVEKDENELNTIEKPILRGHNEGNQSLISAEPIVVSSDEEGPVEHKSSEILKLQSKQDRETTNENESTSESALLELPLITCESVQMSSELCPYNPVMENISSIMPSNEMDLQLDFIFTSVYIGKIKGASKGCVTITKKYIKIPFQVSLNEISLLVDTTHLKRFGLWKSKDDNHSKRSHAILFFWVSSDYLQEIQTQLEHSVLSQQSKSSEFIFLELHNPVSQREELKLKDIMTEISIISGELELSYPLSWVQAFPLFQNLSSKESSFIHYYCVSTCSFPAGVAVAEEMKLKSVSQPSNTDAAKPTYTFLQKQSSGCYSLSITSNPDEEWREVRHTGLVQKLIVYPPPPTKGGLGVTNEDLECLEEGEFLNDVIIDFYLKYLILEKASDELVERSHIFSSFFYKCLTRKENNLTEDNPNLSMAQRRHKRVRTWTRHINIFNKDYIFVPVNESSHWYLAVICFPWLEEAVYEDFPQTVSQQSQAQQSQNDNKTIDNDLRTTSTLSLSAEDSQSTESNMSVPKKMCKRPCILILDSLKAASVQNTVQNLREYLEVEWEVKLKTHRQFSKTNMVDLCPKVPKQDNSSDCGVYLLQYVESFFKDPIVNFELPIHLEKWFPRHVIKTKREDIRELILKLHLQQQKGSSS
Format: functional.

The target in data set [6] is T5, Sentrin-specific protease 8 (Homo sapiens, UniProt Q96LD8).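 Note: luminescence read-out of SENP8 inhibition, dose-response confirmation following an ultra-high-throughput screen.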
T5 sequence (Q96LD8 whole entry): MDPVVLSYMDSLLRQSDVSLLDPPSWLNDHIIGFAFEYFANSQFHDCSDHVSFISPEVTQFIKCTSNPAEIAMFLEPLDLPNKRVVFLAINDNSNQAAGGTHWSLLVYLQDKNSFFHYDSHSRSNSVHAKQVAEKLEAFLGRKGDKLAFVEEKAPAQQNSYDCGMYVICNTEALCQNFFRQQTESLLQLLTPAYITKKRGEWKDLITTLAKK
Format: functional.

The target of a further data set is Cytochrome P450 2D6 (Homo sapiens, UniProt P10635).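 Note: CYP2D6 member of a cytochrome P450 panel assay.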
Sequence of Cytochrome P450 2D6 (P10635 whole entry): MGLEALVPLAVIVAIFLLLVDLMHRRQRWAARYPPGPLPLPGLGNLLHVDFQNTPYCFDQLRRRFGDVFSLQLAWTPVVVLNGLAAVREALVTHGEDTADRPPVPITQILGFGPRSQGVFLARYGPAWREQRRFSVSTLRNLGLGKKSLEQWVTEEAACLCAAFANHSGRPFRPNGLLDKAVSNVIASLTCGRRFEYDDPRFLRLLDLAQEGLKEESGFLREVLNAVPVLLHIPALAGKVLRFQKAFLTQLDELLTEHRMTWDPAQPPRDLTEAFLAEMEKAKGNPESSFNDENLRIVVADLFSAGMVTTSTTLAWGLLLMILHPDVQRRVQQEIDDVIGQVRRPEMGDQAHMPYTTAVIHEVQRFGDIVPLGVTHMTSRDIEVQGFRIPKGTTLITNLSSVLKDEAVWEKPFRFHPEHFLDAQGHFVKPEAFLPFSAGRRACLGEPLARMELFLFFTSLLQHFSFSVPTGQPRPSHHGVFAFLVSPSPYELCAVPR
A further data set has as its target Cytochrome P450 2C9 (Homo sapiens, UniProt P11712).
A further data set addresses T6, Protein RecA (Mycobacterium tuberculosis, UniProt P9WHJ3).
T6 sequence (P9WHJ3 whole entry): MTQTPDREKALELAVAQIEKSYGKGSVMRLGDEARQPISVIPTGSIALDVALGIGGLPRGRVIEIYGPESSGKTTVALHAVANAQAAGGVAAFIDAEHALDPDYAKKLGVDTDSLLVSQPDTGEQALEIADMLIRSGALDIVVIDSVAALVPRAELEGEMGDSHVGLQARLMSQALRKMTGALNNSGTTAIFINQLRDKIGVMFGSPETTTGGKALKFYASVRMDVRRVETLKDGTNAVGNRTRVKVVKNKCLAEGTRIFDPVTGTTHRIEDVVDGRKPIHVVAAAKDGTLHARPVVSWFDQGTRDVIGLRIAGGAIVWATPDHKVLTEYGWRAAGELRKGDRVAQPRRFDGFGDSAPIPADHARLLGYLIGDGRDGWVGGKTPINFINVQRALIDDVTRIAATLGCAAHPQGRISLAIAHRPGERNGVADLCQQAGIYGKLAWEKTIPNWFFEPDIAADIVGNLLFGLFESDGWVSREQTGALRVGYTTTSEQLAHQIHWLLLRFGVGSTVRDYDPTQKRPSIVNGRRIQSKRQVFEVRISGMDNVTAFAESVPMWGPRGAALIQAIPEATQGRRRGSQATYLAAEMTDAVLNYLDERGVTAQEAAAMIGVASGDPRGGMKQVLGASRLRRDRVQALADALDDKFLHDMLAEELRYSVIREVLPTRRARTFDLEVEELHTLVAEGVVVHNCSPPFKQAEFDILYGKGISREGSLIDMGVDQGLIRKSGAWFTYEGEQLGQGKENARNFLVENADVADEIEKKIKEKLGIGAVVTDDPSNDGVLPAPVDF
The experiment in a line: Fluorescence Cell-Free Homogeneous Dose Retest to Identify Inhibitors of RecA-Intein Splicing Activity. [Related pubchem assays (depositor defined):AID2097, AID2223, AID489010, AID492950]. Format: functional.

Data set [7] addresses T7, Replicative DNA helicase DnaB (Mycobacterium tuberculosis, UniProt P9WMR3).
T7 sequence (P9WMR3 whole entry): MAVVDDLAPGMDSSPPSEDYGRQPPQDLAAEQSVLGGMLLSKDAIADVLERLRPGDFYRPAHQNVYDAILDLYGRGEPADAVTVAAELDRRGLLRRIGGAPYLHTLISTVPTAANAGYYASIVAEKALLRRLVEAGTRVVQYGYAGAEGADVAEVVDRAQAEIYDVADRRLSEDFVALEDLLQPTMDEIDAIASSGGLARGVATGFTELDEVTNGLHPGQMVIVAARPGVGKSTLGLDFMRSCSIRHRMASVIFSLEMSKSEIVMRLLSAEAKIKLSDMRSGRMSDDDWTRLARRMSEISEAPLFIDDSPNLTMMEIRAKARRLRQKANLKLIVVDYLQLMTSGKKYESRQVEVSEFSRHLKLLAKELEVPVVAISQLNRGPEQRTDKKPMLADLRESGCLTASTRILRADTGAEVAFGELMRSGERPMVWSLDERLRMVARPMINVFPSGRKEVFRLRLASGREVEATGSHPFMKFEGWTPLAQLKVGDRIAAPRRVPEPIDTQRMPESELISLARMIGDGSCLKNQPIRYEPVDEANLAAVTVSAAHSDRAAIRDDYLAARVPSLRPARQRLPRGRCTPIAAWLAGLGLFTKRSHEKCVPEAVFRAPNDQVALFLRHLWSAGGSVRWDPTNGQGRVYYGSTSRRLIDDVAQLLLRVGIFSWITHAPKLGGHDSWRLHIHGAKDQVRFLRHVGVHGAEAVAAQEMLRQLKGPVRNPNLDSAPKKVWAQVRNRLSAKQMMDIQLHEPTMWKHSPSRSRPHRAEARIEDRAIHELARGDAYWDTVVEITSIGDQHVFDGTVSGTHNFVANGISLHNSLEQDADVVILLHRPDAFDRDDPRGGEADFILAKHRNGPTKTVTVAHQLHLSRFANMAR
The experiment in a line: DnaB intein splicing inhibitors, dose response, biochemical, cell-free fluorescence (AID 449749). The data set is classed as functional.

Sequence of Cytochrome P450 2C9 (P11712 whole entry): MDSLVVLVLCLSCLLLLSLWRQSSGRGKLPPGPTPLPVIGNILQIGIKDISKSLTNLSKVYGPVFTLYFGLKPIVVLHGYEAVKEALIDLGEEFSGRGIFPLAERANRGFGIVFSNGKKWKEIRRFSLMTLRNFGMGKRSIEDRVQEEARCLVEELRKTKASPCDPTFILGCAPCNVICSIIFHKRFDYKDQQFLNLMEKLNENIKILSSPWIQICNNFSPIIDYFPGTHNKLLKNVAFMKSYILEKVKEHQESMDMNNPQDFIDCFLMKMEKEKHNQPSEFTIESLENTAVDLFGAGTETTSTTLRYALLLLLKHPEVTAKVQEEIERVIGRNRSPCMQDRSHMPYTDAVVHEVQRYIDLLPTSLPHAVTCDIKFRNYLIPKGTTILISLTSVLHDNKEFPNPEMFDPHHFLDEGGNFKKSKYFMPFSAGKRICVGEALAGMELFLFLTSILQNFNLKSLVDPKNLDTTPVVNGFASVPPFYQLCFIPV

With `CCCNC(=O)Cn1c(=O)/c(=C/c2ccc(-c3cccc([N+](=O)[O-])c3)o2)s/c1=C\C(=O)C(C)(C)C`, the EC50 in data set [1] and in data set [2] was > 99 µM (inactive) each time.

As to `Cc1ccc2c(Cl)c(C(=O)N/N=C/c3cccn3C)sc2c1`, the EC50 in [1] and in data set [2] was > 99 µM (inactive) each time.

As for `CCCCN1CC(=O)N2[C@H]3c4cc(C)ccc4OC[C@@H]3[C@H](c3ccccc3)[C@]2(C)C1=O`, the figures for the EC50 in [1] and in [2] were > 99 µM (inactive) and 24 µM (inactive), respectively.

Turning to `COC(=O)Cn1c2ccc(OC)cc2c2nc3ccccc3nc21`, the EC50 in [1] and in [2] was > 99 µM (inactive) throughout.

On to `Nc1c2c(nc3sc4c(c13)CCCCC4)CCCC2`, for which the IC50 in [3] is 33.7 µM (active); on Caspase-3, 18.4 µM (active); in data set [5], 10.3 µM (active); in [6], 32.8 µM (active). Moreover, the CC50 in data set [4] was 18 µM (active).

In the case of `CCC(CC)C(=O)NCc1ccc2c(c1)cc(C)n2C`, the AC50 was 31.6 µM (inconclusive) on Cytochrome P450 2D6, “inconclusive” on Cytochrome P450 2C9 and > 380 µM (inactive) in data set [7]. In addition, the EC50 at Protein RecA is > 380 µM (inactive).

`Cc1cccc(-c2noc(C3CCCCC3)n2)c1`: the IC50 in [3] was 40.1 µM (active); on Caspase-3, 32 µM (active); in data set [5] it was 11.3 µM (active); in data set [6], > 100 µM (inactive).

The term EC50 denotes the concentration that produces a half-maximal response. As usually defined, the IC50 is the point on the concentration scale where inhibition reaches its midpoint. By AC50 is commonly meant the concentration at which the activity in the assay is half-maximal.

The record behind these values is ChEMBL document CHEMBL1201862, “PubChem BioAssay data set” (2004).
